Patent publication US20100022402A1, “Methods and Compositions for the In Vitro High-Throughput Detection of Protein/Protein Interactions” (priority 2004, published 2010)
Read-outs that look alike come from different tables or passages of the source. One block for each compound: values may come before it.

Key:
[1] = test system: λD-Acid:λD-Base association; assay: Titration of λD-Acid:λD-Base phage association by free competitors (loss of double resistant multilysogen formation); assay type: binding; conditions: for concentration found to inhibit the λD-Acid:λD-Base interaction: free amino acid; for cross-inhibition of λD-Acid:λD-Base: non-partner free proteins; for IC50, inhibition of Acid/Base association: MOI of 0.0025, aptamer 0.001 μM to 5 μM, FIG. 6; for Kd: free synthetic peptide competing with aptamer interaction, read-out: apparent KD (concentration of free peptide that results in an IC50)
Procedure: Lambda display phages are used to co-infect cells at an MOI of 0.0025. In the presence of increasing concentrations of the Acidic (triangles) or Basic (square) Aptamer (0.001 μM to 5 μM), titration of Acid/Base association is scored by the loss of double resistant multilysogen formation. The point representing the maximum number of lysogens for this given MOI.
(§1) Display phages are assayed for their ability to associate with other phages bearing a potential binding partner, with a non-binding partner and with a non-display D vector phage (i.e. λA2 and λA3). The production of double antibiotic resistant (Cml^r/Kan^r) multilysogen E. coli LE392 is used to mark positive fusion D display protein-protein interaction. First, the phages are combined to yield a chosen MOI (a typical initial range is 0.002-0.04), and allowed to associate for 5 minutes at room temperature (RT) prior to dilution with 220 uL of Salted Association Buffer (SAB; 20 mM Tris.HCLpH7.4, 10 mM CaCl2, 10 mM MgCl2 and 100 mM NaCl). After 10 minutes at room temperature, 1×10^8 of fresh log-phase E. coli LE392 recovered in [LB+0.4% maltose+10 mM CaCl2] is added. Phage-phage association, co-infection and antibiotic gene expression are allowed to proceed for 45 min-1 h at RT, followed by plating on agar supplemented with 10^ug/mL Cml+30^ug/mL Kan. Plates are incubated overnight at 32° C. for lysogen formation.

[2] = test system: λD-CUE:λD-Ubiquitin association; assay: Titration of λD-CUE:λD-Ubiquitin phage association by free proteins (loss of double resistant multilysogen formation); assay type: binding; conditions: for titration of λD-CUE:λD-Ubiquitin by non-partner peptides: acidic or basic aptamers
Procedure: Lambda display phages are used to co-infect cells at an MOI of 0.04. In the presence of increasing concentrations of the wtUbiquitin (diamonds), wt CUE (squares) or mutant CUEM419D (triangles) protein is added to the phage pair, and positive λD-CUE:λD-Ubiquitin association is scored by the loss of double resistant multilysogen formation. The results are tabulated as the number of colonies counted, with the point representing the maximum number of lysogens for this given MOI.
as §1

[3] = test system: E. coli LE392 cells; assay: Protein association assay: lysogen formation after infection with vector or display phages; assay type: cell-based; conditions: single input phage, MOI 0.1
Procedure: as §1

[4] = target: monoubiquitin (Homo sapiens, UniProt P0CG47); conditions: cited from earlier work
[5] = target: T1, CUE (Saccharomyces cerevisiae, UniProt P54787); conditions: CUE binds itself via an alpha helix interface; read-out: Kd (dimerization); cited from earlier work
T1 construct: The CUE domain (50 amino acid residues), as characterized by the conserved MFP and LL motifs
T1 sequence (P54787 408-451 limits assumed): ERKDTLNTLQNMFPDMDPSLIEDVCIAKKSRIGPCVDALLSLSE

Compound: N=C(N)NCCC[C@H](N)C(=O)O [Arginine]
- concentration found to inhibit the λD-Acid:λD-Base interaction [1]: 4.6 mM

Compound: N[C@@H](CCC(=O)O)C(=O)O [Glutamic acid]
- concentration found to inhibit the λD-Acid:λD-Base interaction [1]: 0.679 mM

Compound: CUEM419D: non-binding mutant CUE protein (KKIEENERKDTLNTLQNDFPDMDPSLIEDVCIAKKSRIGPCVDALLSLSE)
- cross-inhibition of λD-Acid:λD-Base [1]: no cross-inhibition
- titration point of λD-CUE:λD-Ubiquitin association ([2]; MOI of 0.04, FIG. 7): no titration point
- ability to challenge the λD-CUE:λD-Ubiquitin interaction ([2]; even at a concentration of 1 mM): unable to challenge

Compound: GEGEGEGE [Acidic Aptamer, [Gly-Glu]4]
- IC50, inhibition of Acid/Base association [1]: ~0.01 µM
- Kd [1]: 0.01 µM
- titration of λD-CUE:λD-Ubiquitin by non-partner peptides [2]: nor is λD-CUE:λD-Ubiquitin titrated

Compound: GRGRGRGR [Basic Aptamer, [Gly-Arg]4]
- IC50, inhibition of Acid/Base association [1]: ~0.01 µM
- Kd [1]: 0.01 µM
- titration of λD-CUE:λD-Ubiquitin by non-partner peptides [2]: nor is λD-CUE:λD-Ubiquitin titrated

Compound: Ubiquitin
- Number of Cml^r/Kan^r Cells [3]: 0
- Number of Kan^r Cells [3]: 3 × 10^6

- Kd ([2]; free protein, read-out: apparent KD, competition of λD-Cue:λD-Ubiquitin pair): 0.002 µM
Compound: wt CUE: free wild type CUE domain (50 amino acids) of Vsp9p (KKIEENERKDTLNTLQNMFPDMDPSLIEDVCIAKKSRIGPCVDALLSLSE)
- cross-inhibition of λD-Acid:λD-Base [1]: no cross-inhibition
- Kd ([4]; CUE as a dimer (dimericCue:Ubiquitin), read-out: apparent KD, CUE binding Ubiquitin): 1.2 µM
- Kd ([4]; CUE as a monomer, read-out: KD, CUE binding monoubiquitin): 20 µM
- Kd [5]: 1000 µM
